Where “and” joins values, the source holds several entries; their conditions need not be identical. Identical values can stand only once. After the bases stand the sugars from the 5' end (letter, count) and the backbone: PS all phosphorothioate, else s phosphorothioate and o phosphodiester by linkage. Methylation of C is not given here. e = 2'-O-(2-methoxyethyl) (MOE); l = locked nucleic acid (LNA); k = constrained ethyl (cEt); d = 2'-deoxy (DNA)

This note sets out measurements from the OligoGym collection.

For one data set, the target named is ANGPTL2. The following applies: ASO.
A further data set has as its target KRAS. The following applies: ASO.

Consider “AACCATTTTGAGATTCC (sugars l4 d11 l2, PS)”, for which the target mRNA inhibition with ANGPTL2 (5 µM) came to 67.7%; in the data set with ANGPTL2 (25 µM), 81.3%.
The like results for “AACCATTTTGAGATTCCC (sugars l3 d13 l2, PS)” were, in that order, 40.2% and 52.7%.
In the data set with KRAS (A431, 2 µM), “GTGTGACTCAGTTAAA (sugars kkddddddddkekekk, PS)” yielded a target mRNA inhibition of 38%.
“GTGTTTATGCAATGTT (sugars k3 d9 k3 e1, PS)”: the target mRNA inhibition with KRAS (A431, 0.185 µM) came out at 19%; with KRAS (A431, 0.556 µM), 63%; with KRAS (A431, 1.667 µM), 79%; with KRAS (A431, 2 µM), 59%; with KRAS (A431, 5 µM) it was 88%.
Turning to “GTGTTTATGCAATGTT (sugars kkddddddddkekekk, PS)”, the target mRNA inhibition with KRAS (A431, 2 µM) turned out to be 9%.
Consider “GTGTTTATGCAATGTT (sugars kkkdddddddddkeke, PS)”, for which the target mRNA inhibition in the data set with KRAS (A431, 0.185 µM) amounted to 30%; with KRAS (A431, 0.556 µM), 55%; with KRAS (A431, 1.667 µM), 80%; with KRAS (A431, 2 µM), 66%; with KRAS (A431, 5 µM), 85%.
The sequence GTTCTGTCTATTCATA (sugars k3 d10 k3, PS) showed a target mRNA inhibition with KRAS (A431, 2 µM) of 31%.
GTTGAGCTATCCAAAC (sugars k3 d10 k3, PS) yielded a target mRNA inhibition with KRAS (A431, 2 µM) of 2%.
The same measure, in the same setting: next, GTTTAAAAAAAAAATT (sugars k3 d10 k3, PS): 2%.
For the sequence “GTTTATGCAATGTTAA (sugars kdddddddddkekeke, PS)”, the target mRNA inhibition with KRAS (A431, 2 µM) was 31%.
On the same count and under the same terms, then GTTTCACATAGCAATT (sugars k3 d10 k3, PS), with 29%.
The sequence TAAGGTAAAAGCTAAC (sugars k3 d10 k3, PS) displayed a target mRNA inhibition with KRAS (A431, 2 µM) of 20%.
TAATAGTTTCCATTGC (sugars k3 d10 k3, PS) showed a target mRNA inhibition with KRAS (A431, 2 µM) of 53%.
On to TAATTAATCCATTTAT (sugars k3 d10 k3, PS), for which, in the data set with KRAS (A431, 2 µM), the target mRNA inhibition is 0%.
With “TAGTGATTAGGTCAAA (sugars k3 d9 k3 e1, PS)”, in the data set with KRAS (A431, 2 µM), the target mRNA inhibition came to 43%.
“TAGTGATTAGGTCAAA (sugars kkddddddddddkeke, PS)”: the target mRNA inhibition with KRAS (A431, 2 µM) was determined as 34%.
For the sequence TCCAGTATTAACACAG (sugars k3 d10 k3, PS), in the data set with KRAS (A431, 2 µM), the target mRNA inhibition turned out to be 34%.
“TCCAGTGATACTTTCA (sugars kkdddddddddkdkdk, PS)” yielded a target mRNA inhibition with KRAS (A431, 2 µM) of 35%.
As for “TCCAGTGATACTTTCA (sugars kkkddddddddkekek, PS)”, the target mRNA inhibition in the data set with KRAS (A431, 2 µM) came to 48%.
Turning to TCCATTTATGTGACTA (sugars k3 d10 k3, PS), the target mRNA inhibition with KRAS (A431, 0.185 µM) was 29%; in the data set with KRAS (A431, 0.556 µM), 59%; with KRAS (A431, 1.667 µM), 65%; with KRAS (A431, 5 µM), 78%.
“TCCATTTATGTGACTA (sugars kkdddddddddkekek, PS)” returned a target mRNA inhibition with KRAS (A431, 2 µM) of 32%.
As to TCTATGAAAGCTCAAA (sugars k3 d10 k3, PS), in the data set with KRAS (A431, 2 µM), the target mRNA inhibition amounted to 18%.
Take TCTCCATTAGTAAATA (sugars k3 d10 k3, PS): the target mRNA inhibition in the data set with KRAS (A431, 2 µM) is 13%.
Regarding TCTTGATTTGTCAGCA (sugars k3 d10 k3, PS), the target mRNA inhibition with KRAS (A431, 0.185 µM) is 13% and 0%; with KRAS (A431, 0.556 µM), 22% and 21%; with KRAS (A431, 1.667 µM) it was 60% and 47%; with KRAS (A431, 2 µM), 62%; with KRAS (A431, 5 µM), 75% and 69%.
Turning to “TGATTTGTCAGCAGGA (sugars kkddddddddddkeke, PS)”, the target mRNA inhibition with KRAS (A431, 0.185 µM) was 31%; with KRAS (A431, 0.556 µM), 48%; with KRAS (A431, 1.667 µM), 67%; in the data set with KRAS (A431, 2 µM), 55%; with KRAS (A431, 5 µM), 8%.
Turning to “TGATTTGTCAGCAGGA (sugars kkddddddddkekekk, PS)”, the target mRNA inhibition in the data set with KRAS (A431, 2 µM) was 32% and 17%.
On the same count and under the same terms, then “TGCTGTGAAACTCTCT (sugars k3 d9 k3 e1, PS)”, with 23%; and TGGTGAATATCTTCAA (sugars k3 d10 k3, PS), with 9%.
Take “TGGTGTAACATAGGTT (sugars k3 d9 k3 e1, PS)”: the target mRNA inhibition with KRAS (A431, 0.185 µM) was found to be 21%; with KRAS (A431, 0.556 µM), 46%; with KRAS (A431, 1.667 µM), 69%; in the data set with KRAS (A431, 2 µM), 56%; with KRAS (A431, 5 µM) it was 80%.
Consider “TGGTGTAACATAGGTT (sugars kkddddddddddkeke, PS)”, for which the target mRNA inhibition in the data set with KRAS (A431, 0.185 µM) turned out to be 28%; with KRAS (A431, 0.556 µM), 62%; with KRAS (A431, 1.667 µM) it was 74%; with KRAS (A431, 2 µM), 67%; in the data set with KRAS (A431, 5 µM), 87%; with KRAS (NCI-H460, 0.037 µM) it was 64.3%.
Consider “TGGTGTAACATAGGTT (sugars kkdddddddddkdkdk, PS)”, for which the target mRNA inhibition with KRAS (A431, 0.185 µM) worked out at 13%; with KRAS (A431, 0.556 µM) it was 33%; with KRAS (A431, 1.667 µM), 63%; with KRAS (A431, 2 µM), 57%; in the data set with KRAS (A431, 5 µM), 75%.
With TGTAGTTTCACATAGC (sugars k3 d10 k3, PS), the target mRNA inhibition is 28% and 3% with KRAS (A431, 0.185 µM); 45% and 34% in the data set with KRAS (A431, 0.556 µM); 59% with KRAS (A431, 2 µM); 75% and 69% with KRAS (A431, 5 µM).
For the sequence “TGTTTATGCAATGTTA (sugars k3 d9 k3 e1, PS)”, the target mRNA inhibition was determined as 43% with KRAS (A431, 0.185 µM); 57% with KRAS (A431, 0.556 µM); 78% with KRAS (A431, 1.667 µM); 72% with KRAS (A431, 2 µM); 90% with KRAS (A431, 5 µM); 65.6% with KRAS (NCI-H460, 0.037 µM).
As for “TGTTTATGCAATGTTA (sugars kkkddddddddkekek, PS)”, in the data set with KRAS (A431, 2 µM), the target mRNA inhibition is 52%.
Still for that read-out and setting: next, TTAATCCATTTATGTG (sugars k3 d10 k3, PS): 34%; “TTAGTGATTAGGTCAA (sugars kkdddddddddkekek, PS)”: 48%; “TTAGTGATTAGGTCAA (sugars kkddddddddkekekk, PS)”: 33%.
Take TTATGGTTAGGGGAAT (sugars k3 d10 k3, PS): in the data set with KRAS (A431, 2 µM), the target mRNA inhibition was 21%.
In the case of TTCAAAGTTCACATAA (sugars k3 d10 k3, PS), in the data set with KRAS (A431, 2 µM), the target mRNA inhibition is 7%.
Same read-out and setting: then TTCATTGTTTAAAAAA (sugars k3 d10 k3, PS), with 6%.
The same measure, in the same setting: then TTGAAAAGTGTTTATG (sugars k3 d10 k3, PS), with 26%.
On to “TTGATTTGTCAGCAGG (sugars kkddddddddddkeke, PS)”, for which the target mRNA inhibition with KRAS (A431, 0.185 µM) was 25%; in the data set with KRAS (A431, 0.556 µM), 48%; with KRAS (A431, 1.667 µM) it was 62%; with KRAS (A431, 2 µM) it was 66% and 45%; with KRAS (A431, 5 µM) it was 83%.
“TTGATTTGTCAGCAGG (sugars kkdddddddddkdkdk, PS)”: the target mRNA inhibition with KRAS (A431, 2 µM) came to 53%.
Same read-out and setting: next, TTGTACTAGTATGCCT (sugars k3 d10 k3, PS): 55%.
With TTTAATGTCACAAGCA (sugars k3 d10 k3, PS), the target mRNA inhibition in the data set with KRAS (A431, 0.037 µM) was 58%; with KRAS (A431, 2 µM), 57%; with KRAS (A431, 5 µM), 96% and 93%; with KRAS (NCI-H460, 0.037 µM), 44.2%.
In the data set with KRAS (A431, 2 µM), TTTATGCAATGTTAAT (sugars k3 d10 k3, PS) displayed a target mRNA inhibition of 34%.
In the case of TTTTAATGTCACAAGC (sugars k3 d10 k3, PS), the target mRNA inhibition with KRAS (A431, 2 µM) stood at 52%.
